# Data reported in article PMC10970593, “Jozimine A2, a Dimeric Naphthylisoquinoline (NIQ) Alkaloid, Shows In Vitro Cytotoxic Effects against Leukemia Cells through NF-κB Inhibition” (International Journal of Molecular Sciences, 2024).
# Where two headings read alike, the source gives them in different places.
# Molecular target: T1, NF-κB (human recombinant; p65 subunit used in docking) (Homo sapiens, UniProt Q04206)
# T1 construct: gene RELA; human recombinant NF-κB protein, Sino Biological cat; No. 12054-H09E
# Test: microscale thermophoresis with labeled recombinant protein
# Assay type: binding
SMILES,Kd (read-out: Kd),Kd
COc1cccc2c(-c3ccc4c(c3O)[C@@H](C)N[C@H](C)C4)c(C)c(-c3c(C)c(-c4ccc5c(c4O)[C@@H](C)N[C@H](C)C5)c4cccc(OC)c4c3O)c(O)c12 [jozimine A2],1.66 ± 0.012 µM,–
COc1cc(C)cc2c(-c3c(O)cc(O)c4c3C[C@@H](C)N[C@@H]4C)cc(-c3cc(-c4c(O)cc(O)c5c4C[C@@H](C)N[C@@H]5C)c4cc(C)cc(OC)c4c3O)c(O)c12 [michellamine B],–,2.8 ± 0.094 µM
